Experiments:
MAPK14 (human) [1] = molecular target: MAPK14 (human) (UniProt Q16539); test: Inhibition of IL-1 Production in Whole Blood
MAPK14 (human) [2] = molecular target: MAPK14 (human) (UniProt Q16539); test: Inhibition of MAPK14 Kinase Activity
MAPK14 (human) [3] = molecular target: MAPK14 (human) (UniProt Q16539); test: Inhibition of IL-6 Production in Whole Blood
MAPK14 (human) [4] = molecular target: MAPK14 (human) (UniProt Q16539); test: Inhibition of IL-1 Production in LPS-Stimulated PBMCs; details: pbmc
MAPK14 (human) [5] = molecular target: MAPK14 (human) (UniProt Q16539); test: Inhibition of TNF-alpha Production in LPS-Stimulated PBMCs; details: pbmc
MAPK14 (human) [6] = molecular target: MAPK14 (human) (UniProt Q16539); test: Inhibition of TNF Production in Whole Blood

MAPK14 (human), sequence (Q16539 whole entry, looked up): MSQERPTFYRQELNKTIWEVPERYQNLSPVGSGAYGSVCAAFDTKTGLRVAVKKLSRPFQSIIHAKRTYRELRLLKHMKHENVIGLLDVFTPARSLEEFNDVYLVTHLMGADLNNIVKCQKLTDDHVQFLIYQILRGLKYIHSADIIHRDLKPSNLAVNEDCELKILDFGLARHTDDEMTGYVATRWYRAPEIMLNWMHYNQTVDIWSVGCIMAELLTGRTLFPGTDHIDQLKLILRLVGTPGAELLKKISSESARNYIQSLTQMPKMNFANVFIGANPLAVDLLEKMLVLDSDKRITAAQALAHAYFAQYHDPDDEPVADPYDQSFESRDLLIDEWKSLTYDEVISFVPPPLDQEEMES

Row | Structure (SMILES) | IC50 (MAPK14 (human) [1]) | IC50 (MAPK14 (human) [2]) | IC50 (MAPK14 (human) [3]) | IC50 (MAPK14 (human) [4]) | IC50 (MAPK14 (human) [5]) | IC50 (MAPK14 (human) [6])
1 | Nc1ccc(Cl)c(-c2c(=O)ncn3nc(Sc4ccc(F)cc4)ccc23)c1Cl | > 500 nM | 100 to 1000 nM | > 500 nM | 100 to 500 nM | > 500 nM | > 500 nM
2 | O=C1NCN2N=C(Sc3ccc(F)cc3F)C=CC2=C1c1cc2c(cc1Cl)OCO2 | < 250 nM | < 100 nM | < 250 nM | < 100 nM | < 100 nM | < 250 nM
3 | CCc1cc(Cl)c(C2=C3C=CC(Sc4ccc(F)cc4)=NN3CNC2=O)cc1O | > 500 nM | < 100 nM | > 500 nM | 100 to 500 nM | > 500 nM | > 500 nM
4 | O=C(O)c1cc(F)ccc1Sc1ccc2c(-c3c(Cl)cccc3Cl)c(=O)ncn2n1 | – | > 1000 nM | – | > 500 nM | > 500 nM | –

— the Kinase Knowledgebase extract (Sharma et al. 2016)
